# pEC50, pIC50: −log10 of the molar value. Structures can show the parent of a compound that is named as a salt.
# How the values were obtained:
# [1] = tested on: acetylcholine-induced bronchoconstriction in guinea pigs; experiment: Effects on acetylcholine-induced bronchoconstriction in guinea pigs; type: in vivo, guinea pig; conditions: Cavia porcellus; 24 hours after 25 μg/kg of the compounds were administered; read-out: percentage of bronchoconstriction suppression with respect to the acetylcholine stimulation
# Method: These in vivo assays are used to evaluate the bronchoprotective effects based on the M3 muscarinic receptor antagonist activity and the β2 adrenergic receptor agonist activity of test compounds. Hartley male guinea pigs (Nippon SLC, Inc.) weighing about 400-500 g were used. The animals were anesthetized by inhalation of Fluothane (Takeda Pharmaceutical Company Limited) in a plastic box. The test compounds were dissolved in physiological saline containing DMSO, and administered through the nasal cavity into the trachea at a dose of 0.04-25 μg/kg and at a volume of 0.4 mL/kg. For control animals, solvent without a test compound was administered. In general, animals awake several minutes after completion of the administration. The animals were anesthetized with an intraperitoneal administration of 33% urethane/0.8% α-chloralose at a dose of 3 mL/kg. In order to intravenously administer acetylcholine or histamine, a catheter was inserted into the carotid artery. In order to measure artificial respiration and airway ventilation pressure, a cannula was inserted into the trachea. Artificial respiration was applied to the animals at a volume of 10 mL/kg and at a frequency of 60/minute, using a ventilator (Harvard Apparatus). The airway ventilation pressure was measured by the Konzett-Roessler method using a general respiratory function analysis system (M.I.P.S). Prior to administration of acetylcholine or histamine, the airway ventilation pressure was measured and baseline values were recorded. Then, physiological saline was administered through the carotid artery catheter at a volume of 0.4 mL/kg, and the airway ventilation pressure was measured. Bronchoconstrictor response was induced by administering acetylcholine (40 μg/kg, 0.4 mL/kg) or histamine (15 μg/kg, 0.4 mL/kg) through the carotid artery catheter one hour after the administration of the test compounds, and the airway ventilation pressure at the maximum contractile response was recorded. In addition, in order to evaluate duration of action of the test compounds, the above-mentioned dose of acetylcholine or histamine was administered, 1 hour, 6 hours, 12 hours, 18 hours, and 24 hours after the administration of test compounds, and the airway ventilation pressure was measured in the same way. The percentage of suppression by the test compounds with respect to the airway contractile response was calculated according to the following formula. (%) Percentage of the airway constriction suppression=(Airway ventilation pressure of test compound-dosed and acetylcholine- or histamine-dosed animals−Baseline value)/(Airway ventilation pressure of acetylcholine- or histamine-dosed animals−Baseline value)×100
# The 50% inhibitory doses (ID50 values) of the test compounds were analyzed by a sigmoidal logistic model using XLfit4 (IDBS, Ltd.) for the percentage of the bronchoconstriction suppression at different doses of the test compounds.
# [2] = target: T1, human M3 muscarinic receptor (Homo sapiens, UniProt P20309); experiment: Inhibitory effect on methacholine-induced calcium influx, FLIPR assay, CHO-K1 cells stably expressing the human M3 muscarinic receptor; type: cell-based; conditions: inhibition of calcium influx induced by methacholine
# T1 construct: expressed in transfected cells; host or cells: CHO-K1
# T1 sequence (P20309 whole entry): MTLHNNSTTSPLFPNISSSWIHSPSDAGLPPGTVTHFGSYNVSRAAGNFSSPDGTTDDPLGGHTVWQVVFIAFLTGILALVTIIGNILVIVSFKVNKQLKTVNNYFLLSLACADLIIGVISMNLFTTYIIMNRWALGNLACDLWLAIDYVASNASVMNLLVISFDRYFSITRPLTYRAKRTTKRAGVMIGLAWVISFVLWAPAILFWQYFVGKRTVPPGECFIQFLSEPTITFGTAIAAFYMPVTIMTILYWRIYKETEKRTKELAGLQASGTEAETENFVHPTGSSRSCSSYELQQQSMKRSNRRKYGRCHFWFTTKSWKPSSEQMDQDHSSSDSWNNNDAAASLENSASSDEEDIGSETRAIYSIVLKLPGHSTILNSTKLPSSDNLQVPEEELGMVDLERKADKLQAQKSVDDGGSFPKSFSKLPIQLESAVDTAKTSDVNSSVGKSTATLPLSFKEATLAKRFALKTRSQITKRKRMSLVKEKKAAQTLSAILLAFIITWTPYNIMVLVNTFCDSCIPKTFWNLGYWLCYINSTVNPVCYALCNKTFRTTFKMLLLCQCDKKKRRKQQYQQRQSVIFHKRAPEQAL
# In short: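 Dye-loaded hM3 CHO-K1 cells were preincubated 180 s with compound solutions prepared at 10 two-fold concentrations (0.01–1000 nM). A 30 nM methacholine solution was then added. Fluorescence was traced for 170 s; max−min signal gave % inhibition against agonist and no-agonist controls, and IC50 came from a four-parameter logistic fit.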
# [3] = target: T2, human β2 adrenergic receptor (Homo sapiens, UniProt P07550); experiment: Whole-cell cAMP Flashplate assay using CHO-K1 cells stably expressing human β2 adrenergic receptor; type: cell-based; conditions: cAMP production
# T2 construct: expressed in transfected cells; host or cells: CHO-K1
# T2 sequence (P07550 whole entry): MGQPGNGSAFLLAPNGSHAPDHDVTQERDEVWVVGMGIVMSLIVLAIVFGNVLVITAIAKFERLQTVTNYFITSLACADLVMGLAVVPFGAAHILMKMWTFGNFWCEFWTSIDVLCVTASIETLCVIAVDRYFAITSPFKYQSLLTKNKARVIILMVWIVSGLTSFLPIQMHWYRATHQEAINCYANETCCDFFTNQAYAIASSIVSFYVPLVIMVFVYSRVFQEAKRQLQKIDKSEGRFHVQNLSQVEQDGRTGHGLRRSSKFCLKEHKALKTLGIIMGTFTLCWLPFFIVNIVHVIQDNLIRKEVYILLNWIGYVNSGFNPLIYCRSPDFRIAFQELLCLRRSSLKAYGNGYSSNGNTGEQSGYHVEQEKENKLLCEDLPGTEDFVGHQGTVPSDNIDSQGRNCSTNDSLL
Structure (SMILES),inhibition in vivo at 0.025 mg/kg [1],pIC50 [2],pEC50 [3]
"COc1cc(NC(=O)CCc2ccc(-c3ccccc3)c(NC(=O)OC3CC[N+](C)(C)CC3)c2)c(Cl)cc1CNC[C@H](O)c1ccc(O)c2[nH]c(=O)ccc12 [Example 2, 4-({[5-(2-{[2-chloro-4-({[(2R)-2-hydroxy-2-(8-hydroxy-2-oxo-1,2-dihydroquinolin-5-yl)ethyl]amino}methyl)-5-methoxyphenyl]carbamoyl}ethyl)-2-phenylphenyl]carbamoyl}oxy)-1,1-dimethylpiperidin-1-ium trifluoroacetate]",≥ 50%,7.71,8.96
"COc1cc(NC(=O)CCc2ccc(-c3ccccc3)c(NC(=O)OC3CC[N+](C)(C)CC3)c2)ccc1CNC[C@H](O)c1ccc(O)c2[nH]c(=O)ccc12 [Example 6, 4-({[5-(2-{[4-({[(2R)-2-hydroxy-2-(8-hydroxy-2-oxo-1,2-dihydroquinolin-5-yl)ethyl]amino}methyl)-3-methoxyphenyl]carbamoyl}ethyl)-2-phenylphenyl]carbamoyl}oxy)-1,1-dimethylpiperidin-1-ium trifluoroacetate]",≥ 50%,8.05,8.77
"C[N+]1(C)CCC(OC(=O)Nc2cc(CCC(=O)Nc3ccc4cc(CNC[C@H](O)c5ccc(O)c6[nH]c(=O)ccc56)ccc4c3)ccc2-c2ccccc2)CC1 [Example 12, 4-({[5-(2-{[6-({[(2R)-2-hydroxy-2-(8-hydroxy-2-oxo-1,2-dihydroquinolin-5-yl)ethyl]amino}methyl)naphthalen-2-yl]carbamoyl}ethyl)-2-phenylphenyl]carbamoyl}oxy)-1,1-dimethylpiperidin-1-ium trifluoroacetate]",≥ 50%,7.58,8.34
"COc1cc(NC(=O)CCCc2ccc(-c3ccccc3)c(NC(=O)OC3CC[N+](C)(C)CC3)c2)c(Cl)cc1CNC[C@H](O)c1ccc(O)c2[nH]c(=O)ccc12 [Example 18, 4-({[5-(3-{[2-chloro-4-({[(2R)-2-hydroxy-2-(8-hydroxy-2-oxo-1,2-dihydroquinolin-5-yl)ethyl]amino}methyl)-5-methoxyphenyl]carbamoyl}propyl)-2-phenylphenyl]carbamoyl}oxy)-1,1-dimethylpiperidin-1-ium trifluoroacetate]",≥ 50%,8.05,9.22
"C[N+]1(C)CCC(OC(=O)Nc2cc(CCCC(=O)Nc3ccc(CNC[C@H](O)c4ccc(O)c5[nH]c(=O)ccc45)cc3Cl)ccc2-c2ccccc2)CC1 [Example 19, 4-({[5-(3-{[2-chloro-4-({[(2R)-2-hydroxy-2-(8-hydroxy-2-oxo-1,2-dihydroquinolin-5-yl)ethyl]amino}methyl)phenyl]carbamoyl}propyl)-2-phenylphenyl]carbamoyl}oxy)-1,1-dimethylpiperidin-1-ium trifluoroacetate]",≥ 50%,8.06,8.92
"COc1cc(NC(=O)CCCc2ccc(-c3ccccc3)c(NC(=O)OC3CC[N+](C)(C)CC3)c2)ccc1CNC[C@H](O)c1ccc(O)c2[nH]c(=O)ccc12 [Example 20, 4-({[5-(3-{[4-({[(2R)-2-hydroxy-2-(8-hydroxy-2-oxo-1,2-dihydroquinolin-5-yl)ethyl]amino}methyl)-3-methoxyphenyl]carbamoyl}propyl)-2-phenylphenyl]carbamoyl}oxy)-1,1-dimethylpiperidin-1-ium trifluoroacetate]",≥ 50%,7.77,8.59
"COc1cc(NC(=O)CCCc2ccc(-c3ccccc3)c(NC(=O)OC3CC[N+](C)(C)CC3)c2)c(Br)cc1CNC[C@H](O)c1ccc(O)c2[nH]c(=O)ccc12 [Example 25, 4-({[5-(3-{[2-bromo-4-({[(2R)-2-hydroxy-2-(8-hydroxy-2-oxo-1,2-dihydroquinolin-5-yl)ethyl]amino}methyl)-5-methoxyphenyl]carbamoyl}propyl)-2-phenylphenyl]carbamoyl}oxy)-1,1-dimethylpiperidin-1-ium trifluoroacetate]",≥ 50%,7.72,9.40
"C[N+]1(C)CCC(OC(=O)Nc2cc(CCCOc3ccc(CCNC[C@H](O)c4ccc(O)c5[nH]c(=O)ccc45)cc3)ccc2-c2ccccc2)CC1 [Example 77, 4-{[(5-{3-[4-(2-{[(2R)-2-hydroxy-2-(8-hydroxy-2-oxo-1,2-dihydroquinolin-5-yl)ethyl]amino}ethyl)phenoxy]propyl}-2-phenylphenyl)carbamoyl]oxy}-1,1-dimethylpiperidin-1-ium trifluoroacetate]",≥ 50%,7.44,8.82
"C[N+]1(C)CCC(OC(=O)Nc2cc(CCNC(=O)c3ccc(CNC[C@H](O)c4ccc(O)c5[nH]c(=O)ccc45)cc3)ccc2-c2ccccc2)CC1 [Example 80, 4-({[5-(2-{[4-({[(2R)-2-hydroxy-2-(8-hydroxy-2-oxo-1,2-dihydroquinolin-5-yl)ethyl]amino}methyl)phenyl]formamide}ethyl)-2-phenylphenyl]carbamoyl}oxy)-1,1-dimethylpiperidin-1-ium trifluoro acetate]",,7.52,8.62
"C[N+]1(C)CCC(OC(=O)Nc2cc(CNC(=O)COc3ccc(CNC[C@H](O)c4ccc(O)c5[nH]c(=O)ccc45)cc3)ccc2-c2ccccc2)CC1 [Example 81, 4-({[5-({2-[4-({[(2R)-2-hydroxy-2-(8-hydroxy-2-oxo-1,2-dihydroquinolin-5-yl)ethyl]amino}methyl)phenoxy]acetamide}methyl)-2-phenylphenyl]carbamoyl}oxy)-1,1-dimethylpiperidin-1-ium trifluoroacetate]",,7.60,8.06

# Reference: patent US9072734B2, “Quaternary ammonium salt compounds” (Teijin Pharma Limited, priority 2009, dated 2015)
